Key:
Assay type in all cases: cell-based
[1] = test system: human lung cancer cells H1975; experiment: Effect of compounds on proliferation of tumor cells (MTT), H1975; details: Homo sapiens, NCI-H1975; H1975 cells, 72 hours, MTT
Protocol: (§1) Human lung cancer cells H1975, H522, human hepatoma cell HepG2, human melanoma cell A375, human epidermal cancer cell A431, and human colon cancer cells COLO205 were cultivated. The cells were collected when they have grown to logarithmic growth phase, and centrifuged at 1000 rpm for 5 min, from which the supernatant was discarded, and the rest was suspended with appropriate amount of medium, and the concentration of cells was adjusted to 2.5-5.5×10^4/ml (once it was 3.0-5.5×10^4/ml). The cell suspension was inoculated into a 96-well cell culture plate with 100 μl per well, and placed in a cell incubator (37° C., 5% CO2) for 24 hours, and then 100 μl of the drug diluted in the cell culture medium was added to each well of the drug group. Three duplicate wells were set for each drug, and the negative control group was medium containing 0.5% DMSO. After being incubated for 72 hours in the incubator, 20 μl of MTT (5 mg/ml) was added to each well, which was placed under 37° C. for 3 hours. 150 μl of DMSO was added to each well and shaken at 37° C. for 5 mins, and absorbance (OD) was determined at 492 nm. The Prism Graphpad statistical software was used to calculate IC50 values.

human melanoma cell A375 = experiment: Effect of compounds on proliferation of tumor cells (MTT), A375; details: A-375, 72 hours
Protocol: as §1

[2] = test system: human lung cancer cells H522; experiment: Effect of compounds on proliferation of tumor cells (MTT), H522; details: NCI-H522, 72 hours
Protocol: as §1

[3] = test system: human epidermal cancer cell A431; experiment: Effect of compounds on proliferation of tumor cells (MTT), A431; details: A-431, 72 hours
Protocol: as §1

[4] = test system: human hepatoma cell HepG2; experiment: Effect of compounds on proliferation of tumor cells (MTT), HepG2; details: 72 hours
Protocol: as §1

[5] = test system: human colon cancer cells COLO205; experiment: Effect of compounds on proliferation of tumor cells (MTT), COLO205; details: COLO 205, 72 hours
Protocol: as §1

| SMILES | IC50 [1] [µM] | IC50 (human melanoma cell A375) [µM] | IC50 [2] [µM] | IC50 [3] [µM] | IC50 [4] [µM] | IC50 [5] [µM] |
| --- | --- | --- | --- | --- | --- | --- |
| C=CC(=O)Nc1cccc(Nc2nc(Nc3cnc(N4CCN(C(=O)C5COC5)CC4)nc3OC)ncc2C(F)(F)F)c1 [ES-163] | 0.168 | 19 | 5.11 | 7.5 | 18.9 | 5.49 |
| C=CC(=O)Nc1cccc(Nc2nc(Nc3cnc(N4CCN(C(=O)OC(C)(C)C)CC4)nc3OC)ncc2C(F)(F)F)c1 [ES-159] | 0.649 | 49.9 | 3.13 | 37 | 2.23 | 1.86 |
| C=CC(=O)Nc1cccc(Nc2nc(Nc3ccc(N4CCN(S(=O)(=O)C(C)C)CC4)nc3OC)ncc2C(F)(F)F)c1 [ES-145] | 0.542 | 77.9 | 18 | 13.5 | 33.3 | 37.6 |
| C=CC(=O)Nc1cccc(Nc2nc(Nc3ccc(N4CCN(S(=O)(=O)C5CC5)CC4)nc3OC)ncc2C(F)(F)F)c1 [ES-134] | 0.0691 | 3.36 | 1.64 | 1.72 | 0.399 | 2.95 |
| C=CC(=O)Nc1cccc(Nc2nc(Nc3ccc(N4CCNCC4)nc3OC)ncc2C(F)(F)F)c1 [ES-069] | 0.224 | 2.42 |  | 5.26 | 15.8 |  |
| C=CC(=O)Nc1cccc(Nc2nc(Nc3cnc(N4CCN(C(=O)OC(C)(C)C)CC4)cc3OC)ncc2C(F)(F)F)c1 [ES-073] | 0.214 | 15 |  | 7.08 | 1.95 |  |
| C=CC(=O)Nc1cccc(Nc2nc(Nc3cnc(N4CCN(C)CC4)nc3OC)ncc2C(F)(F)F)c1 [ES-161] | 0.0868 | 7.86 | 2.75 | 2.32 | 6.24 | 4.14 |
| C=CC(=O)Nc1cccc(Nc2nc(Nc3ccc(N(C)C4CCN(C(=O)N(C)C)C4)nc3OC)ncc2C(F)(F)F)c1 (stereo not shown) [ES-151] | 0.132 | 4.47 | 3.13 | 6.74 | 4.78 | 6.07 |
| C=CC(=O)Nc1cccc(Nc2nc(Nc3ccc(NC4CCN(C)C4)nc3OC)ncc2C(F)(F)F)c1 (stereo not shown) [ES-146] | 0.046 | 12.2 | 3 | 3.46 | 13 | 8.71 |
| C=CC(=O)Nc1cccc(Nc2nc(Nc3ccc(N(C)C4CCN(C(=O)C5COC5)C4)nc3OC)ncc2C(F)(F)F)c1 (stereo not shown) [ES-149] | 0.0491 | 6.71 | 3.1 | 3.92 | 5.23 | 5.07 |
| C=CC(=O)Nc1cccc(Nc2nc(Nc3ccc(N(C)C4CCN(C)C4)nc3OC)ncc2C(F)(F)F)c1 (stereo not shown) [ES-150] | 0.0232 | 6.22 | 1.51 | 2.05 | 3.27 | 5.15 |
| C=CC(=O)Nc1cccc(Nc2nc(Nc3cnc(N4CCN(C(C)=O)CC4)cc3OC)ncc2C(F)(F)F)c1 [ES-074] | 0.179 | 10.3 |  | 3.5 | 6.88 |  |
| C=CC(=O)Nc1cccc(Nc2nc(Nc3ccc(NC4CCN(C(=O)C5COC5)C4)nc3OC)ncc2C(F)(F)F)c1 (stereo not shown) [ES-125] | 0.149 | 12.2 | 3.96 | 5.04 | 16.8 | 5.56 |
| C=CC(=O)Nc1cccc(Nc2nc(Nc3ccc(NC4CCN(C(C)=O)C4)nc3OC)ncc2C(F)(F)F)c1 (stereo not shown) [ES-123] | 0.15 | 8.94 | 2.69 | 4.62 | 9.2 | 4.62 |
| C=CC(=O)Nc1cccc(Nc2nc(Nc3cnc(N4CCN(C(C)=O)CC4)nc3OC)ncc2C(F)(F)F)c1 [ES-160] | 0.69 | > 100 | 3.56 | 7.21 | 5.79 | 5.08 |
| C=CC(=O)Nc1cccc(Nc2nc(Nc3ccc(N(C)C4CCN(CCF)C4)nc3OC)ncc2C(F)(F)F)c1 (stereo not shown) [ES-148] | 0.032 | 5.87 | 1.56 | 2.5 | 4.53 | 5 |
| C=CC(=O)Nc1cccc(Nc2nc(Nc3ccc(NC4CCN(CCF)C4)nc3OC)ncc2C(F)(F)F)c1 (stereo not shown) [ES-124] | 0.0557 | 6.26 | 1.25 | 2.09 | 3.73 | 2.21 |
| C=CC(=O)Nc1cccc(Nc2nc(Nc3cnc(N4CCN(C(=O)N(C)C)CC4)nc3OC)ncc2C(F)(F)F)c1 [ES-164] | 0.0745 | 18.2 | 1.39 | 5.72 | 12.6 | 6.05 |
| C=CC(=O)Nc1cccc(Nc2nc(Nc3ccc(N(C)C4CCN(C(C)=O)C4)nc3OC)ncc2C(F)(F)F)c1 (stereo not shown) [ES-147] | 0.464 | 4.2 | 1.74 | 2.21 | 4.28 | 4.29 |

Now from value to compound:

| IC50 [1] [µM] | IC50 (human melanoma cell A375) [µM] | IC50 [2] [µM] | IC50 [3] [µM] | IC50 [4] [µM] | IC50 [5] [µM] | SMILES |
| --- | --- | --- | --- | --- | --- | --- |
| 0.0552 | 4.5 | 2.34 | 0.72 | 4.05 | 4.25 | C=CC(=O)Nc1cccc(Nc2nc(Nc3ccc(N4CCN(C(=O)C(C)C)CC4)nc3OC)ncc2C(F)(F)F)c1 [ES-141] |
| 0.48 | 2.02 | 1.07 | > 100 | 0.401 | 2.15 | C=CC(=O)Nc1cccc(Nc2nc(Nc3ccc(N4CCN(S(=O)(=O)CC)CC4)nc3OC)ncc2C(F)(F)F)c1 [ES-143] |
| 0.08 | 4.4 | 0.826 | 1.22 | 1.01 | 2.96 | C=CC(=O)Nc1cccc(Nc2nc(Nc3ccc(N4CCN(S(C)(=O)=O)CC4)nc3OC)ncc2C(F)(F)F)c1 [ES-142] |
| 0.0356 | 4.59 | 1.77 | 2.25 | 0.794 | 3.35 | C=CC(=O)Nc1cccc(Nc2nc(Nc3ccc(N4CCN(C(=O)C5CC5)CC4)nc3OC)ncc2C(F)(F)F)c1 [ES-130] |
| 0.11 | 1.5 | 3.25 | 4.43 | 0.329 | 8.87 | C=CC(=O)Nc1cccc(Nc2nc(Nc3ccc(N4CCN(C(=O)C(F)(F)F)CC4)nc3OC)ncc2C(F)(F)F)c1 [ES-135] |
| 0.175 | 1.04 | 1.59 | 0.768 | 2.05 | 3.59 | C=CC(=O)Nc1cccc(Nc2nc(Nc3ccc(N4CCN(C(=O)OCC)CC4)nc3OC)ncc2C(F)(F)F)c1 [ES-136] |
| 0.43 | 12.5 | 3.39 | 5.68 | 13.2 | 5.66 | C=CC(=O)Nc1cccc(Nc2nc(Nc3ccc(N4CCN(S(=O)(=O)NC)CC4)nc3OC)ncc2C(F)(F)F)c1 [ES-133] |
| 1.65 | 9.47 | 2.71 | 4.54 | 3.86 | 3.6 | C=CC(=O)Nc1cccc(Nc2nc(Nc3ccc(N4CCN(C(=O)C(C)(C)C)CC4)nc3OC)ncc2C(F)(F)F)c1 [ES-139] |
| 0.111 | 4.95 |  | 1.75 | 7.22 |  | C=CC(=O)Nc1cccc(Nc2nc(Nc3ccc(N4CCN(C(=O)OC(C)(C)C)CC4)nc3OC)ncc2C(F)(F)F)c1 [ES-070] |
| 0.254 | 3.79 | 5.89 | 2.91 | 3.07 | 4.08 | C=CC(=O)Nc1cccc(Nc2nc(Nc3ccc(N4CCN(C(=O)CC(C)(C)C)CC4)nc3OC)ncc2C(F)(F)F)c1 [ES-138] |
| 0.23 | 4.42 | 2.9 | 2.62 | 4.14 | 3.78 | C=CC(=O)Nc1cccc(Nc2nc(Nc3ccc(N4CCN(S(=O)(=O)N(C)C)CC4)nc3OC)ncc2C(F)(F)F)c1 [ES-132] |
| 0.0211 | 3.58 | 2.29 | 2.27 | 2.69 | 4.12 | C=CC(=O)Nc1cccc(Nc2nc(Nc3ccc(N4CCN(C(=O)CC)CC4)nc3OC)ncc2C(F)(F)F)c1 [ES-137] |
| 0.133 | 1.51 | 0.399 | 2.18 | 0.101 | 1.46 | C=CC(=O)Nc1cccc(Nc2nc(Nc3ccc(N4CCN(S(=O)(=O)CCC)CC4)nc3OC)ncc2C(F)(F)F)c1 [ES-144] |
| 0.27 | 6.46 | 2.28 | 2.08 | 5.87 | 3.16 | C=CC(=O)Nc1cccc(Nc2nc(Nc3ccc(N4CCN(C(=O)COC(C)=O)CC4)nc3OC)ncc2C(F)(F)F)c1 [ES-140] |
| 0.0579 | 4.04 | 2.4 | 3.82 | 3.07 | 5.33 | C=CC(=O)Nc1cccc(Nc2nc(Nc3ccc(N4CCN(C(=O)N(C)C)CC4)nc3OC)ncc2C(F)(F)F)c1 [ES-131] |

From patent publication US10710979B2, “EGFR kinase inhibitor and preparation method and use thereof” (ZHEJIANG BOSSAN PHARMACEUTICAL CO. LTD., priority 2015, dated 2020)
